Key:
[1] = molecular target: Epidermal growth factor receptor (Homo sapiens, UniProt P00533); test: Inhibition of Epidermal Growth Factor (EGF) at 10 µM in the Eurofins-Panlabs radioligand binding assay (Eurofins_assay_225510)
[2] = molecular target: T1, Cysteinyl leukotriene receptor 1 (Homo sapiens) (UniProt Q9Y271); test: Inhibition of Leukotriene, Cysteinyl CysLT1 at 10 µM in the Eurofins-Panlabs radioligand binding assay (Eurofins_assay_250460); parameters: ligand concentration 0.3 nM, non-specific ligand with concentration 0.3 µM Leukotriene D4, incubation time 30 min, incubation temperature 25 °C
T1 sequence (whole entry): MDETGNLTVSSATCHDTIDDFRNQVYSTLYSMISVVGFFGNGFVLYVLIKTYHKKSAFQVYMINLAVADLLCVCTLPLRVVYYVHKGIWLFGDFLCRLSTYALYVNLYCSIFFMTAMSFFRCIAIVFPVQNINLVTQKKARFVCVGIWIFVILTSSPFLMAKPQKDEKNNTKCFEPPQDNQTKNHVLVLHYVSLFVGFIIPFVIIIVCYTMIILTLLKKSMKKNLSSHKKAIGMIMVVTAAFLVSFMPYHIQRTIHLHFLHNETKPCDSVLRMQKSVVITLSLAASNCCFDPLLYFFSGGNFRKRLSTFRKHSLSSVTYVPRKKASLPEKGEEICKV

[3] = molecular target: Platelet-activating factor receptor (Homo sapiens) (UniProt P25105); test: Inhibition of Platelet Activating Factor (PAF) at 10 µM in the Eurofins-Panlabs radioligand binding assay (Eurofins_assay_265010); details: Compound concentration 10.0 uM
[4] = molecular target: T2, Prostaglandin G/H synthase 2 (Homo sapiens) (UniProt P35354); test: (§1) Inhibition of Cyclooxygenase COX-2 at compound concentration of 10.0 uM in the Eurofins-Panlabs enzyme assay (Eurofins_assay_118010); parameters: substrate with concentration 0.3 uM Arachidonic acid, incubation time 15 min, incubation temperature 37 C
T2 sequence (whole entry): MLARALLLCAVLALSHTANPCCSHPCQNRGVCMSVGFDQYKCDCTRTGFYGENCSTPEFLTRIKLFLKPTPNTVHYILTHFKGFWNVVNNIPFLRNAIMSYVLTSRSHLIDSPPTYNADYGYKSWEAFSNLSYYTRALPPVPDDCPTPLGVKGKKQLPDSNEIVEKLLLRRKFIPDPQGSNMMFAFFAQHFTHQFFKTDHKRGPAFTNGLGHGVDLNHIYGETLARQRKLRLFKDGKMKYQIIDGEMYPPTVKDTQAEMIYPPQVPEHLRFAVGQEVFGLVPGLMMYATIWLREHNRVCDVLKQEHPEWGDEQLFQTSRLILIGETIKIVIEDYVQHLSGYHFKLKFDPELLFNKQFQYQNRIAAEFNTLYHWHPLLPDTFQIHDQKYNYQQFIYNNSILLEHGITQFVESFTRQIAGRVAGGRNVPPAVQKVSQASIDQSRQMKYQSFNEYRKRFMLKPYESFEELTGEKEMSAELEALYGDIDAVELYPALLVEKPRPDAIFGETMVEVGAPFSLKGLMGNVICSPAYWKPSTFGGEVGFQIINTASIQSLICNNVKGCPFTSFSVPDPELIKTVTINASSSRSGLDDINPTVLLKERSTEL

[5] = molecular target: Prostaglandin G/H synthase 2 (Homo sapiens, UniProt P35354); test: as §1; parameters: substrate with concentration 0.3 uM Arachidonic acid, incubation time 15 min, incubation temperature 37 C
[6] = molecular target: C-X-C chemokine receptor type 2 (Homo sapiens) (UniProt P25025); test: Inhibition of Chemokine CXCR2 (IL-8RB) at 10 µM in the Eurofins-Panlabs radioligand binding assay (Eurofins_assay_244500)
[7] = molecular target: 5-hydroxytryptamine receptor 6 (Homo sapiens) (UniProt P50406); test: Inhibition of Serotonin (5-Hydroxytryptamine) 5-HT6 at 10 µM in the Eurofins-Panlabs radioligand binding assay (Eurofins_assay_272200)
[8] = molecular target: Histamine H3 receptor (Homo sapiens) (UniProt Q9Y5N1); test: Histamine H3 Eurofins-Panlabs radioligand binding assay; details: Compound concentration 10.0 uM
[9] = molecular target: Histamine H4 receptor (Homo sapiens) (UniProt Q9H3N8); test: Histamine H4 Eurofins-Panlabs radioligand binding assay; details: Compound concentration 10.0 uM
[10] = molecular target: Endothelin-converting enzyme 1 (Homo sapiens) (UniProt P42892); test: Peptidase, Endothelin Converting Enzyme-1 (ECE-1) Eurofins-Panlabs enzyme assay; details: Compound concentration 10.0 uM
[11] = molecular target: Tyrosine-protein phosphatase non-receptor type 2 (Homo sapiens) (UniProt P17706); test: Protein Tyrosine Phosphatase, PTPN2 (TCPTP) Eurofins-Panlabs enzyme assay; parameters: substrate with concentration DiFMUP, incubation time 60 min, incubation temperature 37 °C; details: Compound concentration 10.0 uM
Homo sapiens = species: Homo sapiens; test: Calcitonin Gene-Related Peptide CGRP1 Eurofins-Panlabs radioligand binding assay; type: protein-complex assay; details: Compound concentration 10.0 uM
[12] = molecular target: T3, D(4) dopamine receptor (Homo sapiens) (UniProt P21917); test: Dopamine D4.4 Eurofins-Panlabs radioligand binding assay; parameters: ligand concentration 1.2 nM; details: Compound concentration 10.0 uM
T3 sequence (whole entry): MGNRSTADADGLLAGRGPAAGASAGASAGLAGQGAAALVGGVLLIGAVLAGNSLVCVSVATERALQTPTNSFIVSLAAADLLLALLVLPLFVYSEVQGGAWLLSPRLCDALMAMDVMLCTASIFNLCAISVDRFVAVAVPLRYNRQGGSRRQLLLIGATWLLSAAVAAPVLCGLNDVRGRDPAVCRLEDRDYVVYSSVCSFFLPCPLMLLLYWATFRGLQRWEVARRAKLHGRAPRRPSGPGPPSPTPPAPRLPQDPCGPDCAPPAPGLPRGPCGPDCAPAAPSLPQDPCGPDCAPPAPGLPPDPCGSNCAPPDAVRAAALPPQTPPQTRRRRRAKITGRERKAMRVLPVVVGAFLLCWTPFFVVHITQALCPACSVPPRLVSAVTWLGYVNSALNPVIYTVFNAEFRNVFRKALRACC

Rattus norvegicus = species: Rattus norvegicus; test: Serotonin (5-Hydroxytryptamine) 5-HT2, Non-Selective Eurofins-Panlabs radioligand binding assay; type: protein assay; details: Compound concentration 10.0 uM
[13] = molecular target: Neuromedin-K receptor (Homo sapiens) (UniProt P29371); test: Tachykinin NK3 Eurofins-Panlabs radioligand binding assay; parameters: ligand concentration 0.8 nM; details: Compound concentration 10.0 uM
[14] = molecular target: Sodium-dependent serotonin transporter (Homo sapiens, UniProt P31645); test: Transporter, Serotonin (5- Hydroxytryptamine) (SERT) Eurofins-Panlabs radioligand binding assay; parameters: ligand concentration 0.15 nM, non-specific ligand with concentration 10 µM Imipramine, incubation time 3 h, incubation temperature 4 °C
[15] = molecular target: Histamine H2 receptor (Homo sapiens) (UniProt P25021)
[16] = molecular target: Glutamate receptor 2 (Homo sapiens) (UniProt P42262); details: Rattus norvegicus; Compound concentration 10.0 uM
Insulin receptor = Insulin receptor (Homo sapiens, UniProt P06213); details: Rattus norvegicus; Compound concentration 10.0 uM
[17] = molecular target: Synaptic vesicular amine transporter (Homo sapiens) (UniProt Q05940); details: Oryctolagus cuniculus
Synaptic vesicular amine transporter (Homo sapiens), sequence (Q05940 whole entry): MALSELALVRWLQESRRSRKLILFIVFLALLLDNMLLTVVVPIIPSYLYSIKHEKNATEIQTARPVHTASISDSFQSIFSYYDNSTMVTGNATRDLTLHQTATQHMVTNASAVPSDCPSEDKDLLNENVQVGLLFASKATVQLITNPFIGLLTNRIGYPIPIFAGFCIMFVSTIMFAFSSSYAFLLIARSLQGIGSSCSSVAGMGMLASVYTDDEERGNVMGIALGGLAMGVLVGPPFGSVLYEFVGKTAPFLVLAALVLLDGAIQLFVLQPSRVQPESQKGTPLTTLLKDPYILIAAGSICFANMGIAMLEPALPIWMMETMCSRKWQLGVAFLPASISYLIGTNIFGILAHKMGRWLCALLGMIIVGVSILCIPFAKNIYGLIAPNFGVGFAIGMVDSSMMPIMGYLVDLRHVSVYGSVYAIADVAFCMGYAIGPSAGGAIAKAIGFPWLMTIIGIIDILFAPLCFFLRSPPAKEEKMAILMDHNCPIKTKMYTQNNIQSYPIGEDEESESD

Histamine H2 receptor (Homo sapiens), sequence (P25021 whole entry): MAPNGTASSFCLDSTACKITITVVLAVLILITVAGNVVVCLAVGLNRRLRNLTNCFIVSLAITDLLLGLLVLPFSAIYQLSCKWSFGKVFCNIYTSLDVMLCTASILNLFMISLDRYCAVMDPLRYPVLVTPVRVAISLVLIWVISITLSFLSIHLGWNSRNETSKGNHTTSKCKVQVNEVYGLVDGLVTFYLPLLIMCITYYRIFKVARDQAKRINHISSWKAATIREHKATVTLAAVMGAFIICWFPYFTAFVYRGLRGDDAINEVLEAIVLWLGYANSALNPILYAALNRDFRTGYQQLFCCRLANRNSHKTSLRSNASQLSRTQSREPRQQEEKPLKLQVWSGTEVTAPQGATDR
Histamine H3 receptor (Homo sapiens), sequence (Q9Y5N1 whole entry): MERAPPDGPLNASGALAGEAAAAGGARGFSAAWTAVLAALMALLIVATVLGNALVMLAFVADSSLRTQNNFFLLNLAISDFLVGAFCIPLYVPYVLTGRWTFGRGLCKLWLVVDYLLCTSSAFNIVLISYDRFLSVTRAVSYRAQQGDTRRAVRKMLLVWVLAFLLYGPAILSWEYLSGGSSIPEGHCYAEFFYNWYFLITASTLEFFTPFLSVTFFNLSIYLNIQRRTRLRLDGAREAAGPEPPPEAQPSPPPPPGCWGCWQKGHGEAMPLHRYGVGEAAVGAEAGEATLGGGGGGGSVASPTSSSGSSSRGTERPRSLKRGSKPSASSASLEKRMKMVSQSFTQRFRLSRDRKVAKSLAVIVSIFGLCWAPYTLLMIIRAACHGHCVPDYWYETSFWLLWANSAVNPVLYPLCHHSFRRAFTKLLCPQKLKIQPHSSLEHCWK
5-hydroxytryptamine receptor 6 (Homo sapiens), sequence (P50406 whole entry): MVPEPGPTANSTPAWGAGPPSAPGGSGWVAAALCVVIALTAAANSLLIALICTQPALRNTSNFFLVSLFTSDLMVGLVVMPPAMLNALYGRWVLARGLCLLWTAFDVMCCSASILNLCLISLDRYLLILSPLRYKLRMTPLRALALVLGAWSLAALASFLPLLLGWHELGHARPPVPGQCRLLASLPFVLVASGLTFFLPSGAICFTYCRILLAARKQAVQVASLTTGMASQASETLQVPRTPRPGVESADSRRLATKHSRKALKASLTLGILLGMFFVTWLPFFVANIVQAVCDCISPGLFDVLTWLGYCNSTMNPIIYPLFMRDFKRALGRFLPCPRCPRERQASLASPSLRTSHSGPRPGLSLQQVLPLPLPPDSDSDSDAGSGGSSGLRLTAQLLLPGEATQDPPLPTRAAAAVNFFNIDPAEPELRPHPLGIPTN
Tyrosine-protein phosphatase non-receptor type 2 (Homo sapiens), sequence (P17706 whole entry): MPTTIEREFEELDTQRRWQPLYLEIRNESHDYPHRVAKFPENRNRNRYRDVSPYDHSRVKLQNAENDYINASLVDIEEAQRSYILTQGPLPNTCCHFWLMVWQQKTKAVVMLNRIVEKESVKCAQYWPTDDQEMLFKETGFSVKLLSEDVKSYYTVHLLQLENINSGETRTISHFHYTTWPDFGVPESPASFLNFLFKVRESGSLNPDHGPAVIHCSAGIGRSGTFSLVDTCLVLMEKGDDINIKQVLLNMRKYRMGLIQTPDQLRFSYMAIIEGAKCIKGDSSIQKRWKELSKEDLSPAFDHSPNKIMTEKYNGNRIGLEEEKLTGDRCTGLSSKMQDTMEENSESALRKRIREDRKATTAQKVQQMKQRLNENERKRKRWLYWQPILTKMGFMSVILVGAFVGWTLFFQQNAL
Epidermal growth factor receptor, sequence (P00533 whole entry): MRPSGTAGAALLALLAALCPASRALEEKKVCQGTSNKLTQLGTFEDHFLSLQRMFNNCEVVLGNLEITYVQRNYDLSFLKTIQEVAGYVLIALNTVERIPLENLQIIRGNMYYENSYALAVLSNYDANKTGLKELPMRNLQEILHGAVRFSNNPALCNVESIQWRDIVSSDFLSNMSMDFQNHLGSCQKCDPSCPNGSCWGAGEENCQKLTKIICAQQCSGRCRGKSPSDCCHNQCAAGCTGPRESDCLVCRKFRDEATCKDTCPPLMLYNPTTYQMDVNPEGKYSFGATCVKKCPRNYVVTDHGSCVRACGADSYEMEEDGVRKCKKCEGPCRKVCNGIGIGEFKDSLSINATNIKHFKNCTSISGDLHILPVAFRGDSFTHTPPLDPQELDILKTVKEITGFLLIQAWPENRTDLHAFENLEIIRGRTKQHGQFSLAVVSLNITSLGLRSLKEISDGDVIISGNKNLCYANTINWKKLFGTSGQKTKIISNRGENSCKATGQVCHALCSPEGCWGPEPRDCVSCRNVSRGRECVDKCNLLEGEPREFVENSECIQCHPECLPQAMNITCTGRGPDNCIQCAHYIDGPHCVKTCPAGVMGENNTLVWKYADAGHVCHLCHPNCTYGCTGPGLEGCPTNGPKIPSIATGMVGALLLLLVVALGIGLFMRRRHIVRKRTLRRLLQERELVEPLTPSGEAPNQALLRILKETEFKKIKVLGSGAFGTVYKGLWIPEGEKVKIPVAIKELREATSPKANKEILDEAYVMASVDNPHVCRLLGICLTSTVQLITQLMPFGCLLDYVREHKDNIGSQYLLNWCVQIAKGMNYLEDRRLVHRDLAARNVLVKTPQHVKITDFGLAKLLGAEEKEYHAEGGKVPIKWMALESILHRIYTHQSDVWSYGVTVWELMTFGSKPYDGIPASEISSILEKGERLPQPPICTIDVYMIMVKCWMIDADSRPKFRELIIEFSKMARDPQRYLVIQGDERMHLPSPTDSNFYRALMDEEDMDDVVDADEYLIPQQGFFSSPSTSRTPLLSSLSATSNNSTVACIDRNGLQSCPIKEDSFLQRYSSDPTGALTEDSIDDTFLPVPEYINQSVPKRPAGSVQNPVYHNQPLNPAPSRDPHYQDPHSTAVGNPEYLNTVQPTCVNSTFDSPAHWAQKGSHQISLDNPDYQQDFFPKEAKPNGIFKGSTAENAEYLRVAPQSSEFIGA
C-X-C chemokine receptor type 2 (Homo sapiens), sequence (P25025 whole entry): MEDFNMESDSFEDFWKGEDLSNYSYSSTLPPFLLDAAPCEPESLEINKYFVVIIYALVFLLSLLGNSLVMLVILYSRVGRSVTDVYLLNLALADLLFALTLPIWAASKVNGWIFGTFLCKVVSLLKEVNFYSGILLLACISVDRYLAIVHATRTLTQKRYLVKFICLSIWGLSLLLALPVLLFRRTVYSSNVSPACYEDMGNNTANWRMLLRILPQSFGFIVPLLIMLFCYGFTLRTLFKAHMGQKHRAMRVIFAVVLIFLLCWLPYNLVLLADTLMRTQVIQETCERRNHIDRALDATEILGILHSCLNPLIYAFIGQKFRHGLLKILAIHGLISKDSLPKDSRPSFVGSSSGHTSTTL
Glutamate receptor 2 (Homo sapiens), sequence (P42262 whole entry): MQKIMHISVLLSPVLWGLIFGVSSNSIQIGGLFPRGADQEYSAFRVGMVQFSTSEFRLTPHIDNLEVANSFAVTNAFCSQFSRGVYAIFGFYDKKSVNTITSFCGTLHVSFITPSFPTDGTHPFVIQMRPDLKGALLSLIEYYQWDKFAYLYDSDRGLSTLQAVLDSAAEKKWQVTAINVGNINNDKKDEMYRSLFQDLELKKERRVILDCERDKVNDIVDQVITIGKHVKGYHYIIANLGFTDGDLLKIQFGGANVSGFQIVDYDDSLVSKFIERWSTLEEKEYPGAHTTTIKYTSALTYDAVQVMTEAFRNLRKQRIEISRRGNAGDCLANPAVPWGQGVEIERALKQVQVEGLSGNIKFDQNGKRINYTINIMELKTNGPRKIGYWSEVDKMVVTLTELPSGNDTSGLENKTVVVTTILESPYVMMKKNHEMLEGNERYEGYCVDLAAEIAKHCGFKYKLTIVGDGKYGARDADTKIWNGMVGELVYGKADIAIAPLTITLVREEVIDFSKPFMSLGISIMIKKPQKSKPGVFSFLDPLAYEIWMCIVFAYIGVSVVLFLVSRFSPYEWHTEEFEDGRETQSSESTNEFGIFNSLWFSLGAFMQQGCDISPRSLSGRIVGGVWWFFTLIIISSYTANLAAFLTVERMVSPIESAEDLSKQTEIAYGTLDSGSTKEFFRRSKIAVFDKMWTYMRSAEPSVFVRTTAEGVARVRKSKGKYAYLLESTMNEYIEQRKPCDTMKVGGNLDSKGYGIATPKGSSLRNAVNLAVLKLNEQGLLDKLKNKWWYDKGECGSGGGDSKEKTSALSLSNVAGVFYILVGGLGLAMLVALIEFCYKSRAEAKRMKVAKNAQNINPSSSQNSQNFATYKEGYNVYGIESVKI
Platelet-activating factor receptor (Homo sapiens), sequence (P25105 whole entry): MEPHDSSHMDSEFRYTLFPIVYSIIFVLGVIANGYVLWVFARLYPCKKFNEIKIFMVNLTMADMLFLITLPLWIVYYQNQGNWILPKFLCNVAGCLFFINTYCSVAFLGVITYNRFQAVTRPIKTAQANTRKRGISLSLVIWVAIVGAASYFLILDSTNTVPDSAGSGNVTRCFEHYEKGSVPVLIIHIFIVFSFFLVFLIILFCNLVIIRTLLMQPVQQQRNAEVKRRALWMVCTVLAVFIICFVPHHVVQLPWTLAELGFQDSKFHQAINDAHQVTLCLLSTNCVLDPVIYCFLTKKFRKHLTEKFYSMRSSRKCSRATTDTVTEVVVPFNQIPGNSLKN

## O=C(O)c1cc(-c2ccc(C3CCNCC3)cc2)c2ccc(-c3ccc(C(F)(F)F)cc3)cc2c1 [PPTN]
[1]
  inhibition: 35%
[2]; Compound concentration 0.01 uM
  inhibition: 0%
[2]; Compound concentration 0.1 uM
  inhibition: 13%
[2]; Compound concentration 1.0 uM
  inhibition: 65%
[2]; Compound concentration 10.0 uM
  inhibition: 97%
[3]
  inhibition: 4%
[4]; Compound concentration 0.01 uM
  inhibition: -3%
[4]; Compound concentration 0.1 uM
  inhibition: 0%
[4]; Compound concentration 1.0 uM
  inhibition: -1%
[4]; Compound concentration 10.0 uM
  inhibition: 70%
[5]
  IC50: 8.71 µM
[6]
  inhibition: 2%
[7]
  inhibition: 7%
[8]
  inhibition: 0%
[9]
  inhibition: 15%
[10]
  inhibition: 12%
[11]
  inhibition: -4%
Homo sapiens
  inhibition: 26%
[12]
  inhibition: -8%
Rattus norvegicus
  inhibition: 0%
[13]
  inhibition: 29%
[14]
  IC50: 9.47 µM
  Ki: 5.03 µM
[14]; Compound concentration 0.01 uM
  inhibition: -7%
[14]; Compound concentration 0.1 uM
  inhibition: -9%
[14]; Compound concentration 1.0 uM
  inhibition: -6%
[14]; Compound concentration 10.0 uM
  inhibition: 58%
[15]; Compound concentration 0.01 uM
  inhibition: 9%
[15]; Compound concentration 0.1 uM
  inhibition: 4%
[15]; Compound concentration 1.0 uM
  inhibition: 7%
[15]; Compound concentration 10.0 uM
  inhibition: 101%
[16]
  inhibition: -2%
Insulin receptor
  inhibition: -8%
[17]; Compound concentration 0.01 uM
  inhibition: -8%
[17]; Compound concentration 0.1 uM
  inhibition: 8%
[17]; Compound concentration 1.0 uM
  inhibition: 41%
[17]; Compound concentration 10.0 uM
  inhibition: 59%
